We go through 18 compounds from patent US20220098203A1 (priority 2018, published 2022).

Where two headings read alike, the source gives them in different places. Where only a bound is given, the exact number is not on record here.

In test [1] the test system is SAM in HCT116 MTAP-deleted cells. The test can be described thus: Cellular assay of target engagement (SAM), LC-MS/MS. In kind it is cell-based, human. To be noted: 72 h, read-out: Cell 72 h SAM Inhibition (MTAP −/−). The method, then:
Measurement of MAT2A activity in cells was made by direct quantitation of the abundance of the product of its enzymatic activity, SAM. Cancer cells were treated with candidate MAT2A inhibitors for a suitable incubation period, and the cells were then lysed using a reagent which quenched any further enzyme activity. Soluble metabolites including SAM were collected and SAM itself was directly measured from the lysate using quantitative LC-MS/MS.
A typical assay was performed using an HCT116 human colon carcinoma cell line which was genetically engineered to delete the MTAP gene (commercially available from Horizon Discovery). […] Cells were plated in 96-well dishes at appropriate cell density. Following 24 hours, cells were then treated with the candidate MAT2A inhibitor. […] Compound was then transferred to a working stock plate in cell culture media by adding 5 μL of compound in DMSO to 495 μL of cell culture media. This working stock was then added to cells via a further 5-fold dilution, by adding 25 μL of working stock to 100 μL of cells in culture media. Following compound addition, cells were incubated at 37° C./5% CO2 for 72 hrs.
To quantitate SAM levels following compound treatment, cells were gently washed once in ammonium carbonate buffer (75 mM at pH 7.4), placed on dry ice, and lysed with metabolite extraction buffer (80% cold methanol and 20% water (v/v) with acetic acid at 1M final concentration with 200 ng/mL deuterated d3-SAM as internal control). Following centrifugation at 4° C. at 3,200 rpm for 30 minutes, the supernatant was collected and stored at −80° C. until analysis by Liquid Chromatography with tandem Mass Spectrometry (LC-MS/MS). LC-MS/MS analysis was performed using an API6500 Mass Spectrometer (Sciex, Framingham, Mass., USA) operating in positive ion spray mode and equipped with a Waters UPLC Acquity (Waters, Milford, Mass., USA) BEH Amide column.

For test [2], the system named is HCT116 MTAP+/+. The test can be described thus: Inhibition of cellular proliferation (Cell Titer Glo), HCT116 MTAP+/+. In kind it is cell-based. The following applies: Homo sapiens, HCT-116, 96 h, Table 5a, 4 days, read-out: 4 Day Relative Growth Inhibition (MTAP +/+). The method, then:
(§1) Test compound impact on cancer cell growth was assessed by treating cancer cells with compound for 4 days and then measuring proliferation using an ATP-based cell proliferation readout (Cell Titer Glo, Promega Corporation).
(§2) In a typical assay an isogenic pair of HCT116 human colon carcinoma cell lines which vary only in MTAP deletion status (HCT116 MTAP+/+ and HCT116 MTAP−/−) were plated in 96-well dishes at appropriate cell density. Following 24 hours, cells were then treated with the candidate MAT2A inhibitor. […] Compound was then transferred to a working stock plate in cell culture media by adding 5 μL of compound in DMSO to 495 μL of cell culture media. This working stock was then added to cells via a further 5-fold dilution, by adding 25 μL of working stock to 100 μL of cells in culture media. Following compound addition, cells were incubated at 37° C./5% CO2 for 4 days.
(§3) The plate was then covered with aluminum foil and shaken for 15 minutes to ensure complete mixing and full cell lysis. […] This luminescence measure was converted to a proliferation index by subtracting from each data point the ATP luminescence signal measured from a bank (no cells) well and dividing by the ATP luminescence signal measured in 0.2% DMSO control well adjusted for signal in blank well.
(In ATP-based viability assays light output follows the ATP content of the culture.)

Test [3] relates to HCT116 MTAP-/-. Kind of test: Inhibition of cellular proliferation (Cell Titer Glo), HCT116 MTAP-/-. In kind it is cell-based, human. The following applies: 4 days, read-out: 4 Day Relative Growth Inhibition (MTAP −/−). As for the experimental part:
as §1, §2, §3

Test [4] deals with T1, MAT2A homodimer (Homo sapiens, UniProt P31153).
T1 construct: inferred from the Ni sepharose purification and imidazole elution; made in house; host or cells: SF9 insect cells, recombinant baculovirus (Bac to Bac, pFASTBAC1)
T1 sequence (P31153 whole entry): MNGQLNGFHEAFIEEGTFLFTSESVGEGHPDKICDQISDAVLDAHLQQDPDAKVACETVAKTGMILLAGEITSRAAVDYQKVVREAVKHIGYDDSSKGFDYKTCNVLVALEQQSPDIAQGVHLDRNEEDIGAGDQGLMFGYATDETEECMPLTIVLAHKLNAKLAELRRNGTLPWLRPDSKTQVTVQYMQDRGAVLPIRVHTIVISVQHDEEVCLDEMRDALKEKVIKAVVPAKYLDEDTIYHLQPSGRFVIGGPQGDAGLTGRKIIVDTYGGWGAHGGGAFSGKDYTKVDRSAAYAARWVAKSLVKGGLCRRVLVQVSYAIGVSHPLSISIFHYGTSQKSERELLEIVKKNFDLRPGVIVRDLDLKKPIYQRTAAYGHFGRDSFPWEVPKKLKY
Kind of test: MAT2A biochemical assay (liberated phosphate, PiColorLock Gold). To be noted: Table 5a; MAT2A biochemical assay; read-out: Enzyme Inhibition. The procedure, abridged:
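Readout is liberated phosphate (PiColorLock Gold), stoichiometric with SAM production, quantified against a potassium phosphate standard curve. Enzyme: recombinant MAT2A homodimer from Sf9, equilibrated 60 min at 25 °C with compound before 60 min reaction with substrate mix containing 500 μM ATP and 400 μM L-methionine.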

[5] abbreviates: Homo sapiens, HCT-116, Table 5a.
Where [6] appears, read: Homo sapiens, HCT-116, 96 h, Table 5a.
The mark [7] stands for this setting: Table 6, select pairs of compounds.

For `CCOc1cc2c(cn1)CN(c1ccc3nn(C)cc3c1)C(=O)N2c1ccc(OC(F)F)cc1` [Example 187, 1-(4-(difluoromethoxy)phenyl)-7-ethoxy-3-(2-methyl-2H-indazol-5-yl)-3,4-dihydropyrido[4,3-d]pyrimidin-2(1H)-one], the IC50 in test [1] (setting [5]) is over 1000 nM; in test [2], over 1000 nM; in test [3] (setting [6]) it was over 1000 nM; in test [4] it was 100 to 1000 nM.
With `Cn1cc2cc(N3Cc4ccc(OCC(F)F)nc4N(c4ccc5scnc5c4)C3=O)ccc2n1` [Example 170, 1-(benzo[d]thiazol-5-yl)-7-(2,2-difluoroethoxy)-3-(2-methyl-2H-indazol-5-yl)-3,4-dihydropyrido[2,3-d]pyrimidin-2(1H)-one], the IC50 in test [1] (setting [5]) was under 100 nM; in test [2], 100 to 1000 nM; in test [3] (setting [6]), under 100 nM; in test [4], under 100 nM.
As to `COc1ccc(N2Cc3ncc(NCC(F)(F)F)nc3N(c3ccc(OC(F)F)cc3)C2=O)cc1` [Example 415, 1-(4-(difluoromethoxy)phenyl)-3-(4-methoxyphenyl)-7-((2,2,2-trifluoroethyl)amino)-3,4-dihydropteridin-2(1H)-one], the IC50 is 100 to 1000 nM in test [1] (setting [5]), 100 to 1000 nM in test [2], 100 to 1000 nM in test [3] (setting [6]) and under 100 nM in test [4].
In the case of `CCOc1ccc2c(n1)N(c1ccc(OC(F)F)cc1)C(=O)N(c1ccn3nccc3c1)C2` [Example 106, 1-(4-(difluoromethoxy)phenyl)-7-ethoxy-3-(pyrazolo[1,5-a]pyridin-5-yl)-3,4-dihydropyrido[2,3-d]pyrimidin-2(1H)-one], the IC50 was under 100 nM in test [1] (setting [5]), over 1000 nM in test [2], 100 to 1000 nM in test [3] (setting [6]) and under 100 nM in test [4].
Take `CCOc1ccc2c(n1)N(c1ccc(OC(F)F)cc1)C(=O)N(c1ccc3ncn(C)c3c1)C2` [Example 272]: the IC50 in test [1] (setting [5]) was under 100 nM; in test [2] it was over 1000 nM; in test [3] (setting [6]), 100 to 1000 nM; in test [4], under 100 nM.
Regarding `Cn1cc2cc(N3Cc4ccc(OCC(F)F)nc4N(c4ccc(OC(F)F)cc4)C3=O)ccc2n1` [Example 145, 7-(2,2-difluoroethoxy)-1-(4-(difluoromethoxy)phenyl)-3-(2-methyl-2H-indazol-5-yl)-3,4-dihydropyrido[2,3-d]pyrimidin-2(1H)-one], the IC50 was under 100 nM in test [1] (setting [5]), over 1000 nM in test [2], under 100 nM in test [3] (setting [6]) and under 100 nM in test [4].
For `CCOc1cnc2c(n1)N(c1ccc(OC(F)F)cc1)C(=O)N(c1ccc3nn(C)cc3c1)C2` [Example 183, 1-(4-(difluoromethoxy)phenyl)-7-ethoxy-3-(2-methyl-2H-indazol-5-yl)-3,4-dihydropteridin-2(1H)-one], the IC50 in test [1] (setting [5]) is under 100 nM; in test [2], over 1000 nM; in test [3] (setting [6]), 100 to 1000 nM; in test [4] it was under 100 nM.
As for `Cn1cc2cc(N3Cc4ccc(OC5CC5)nc4N(c4ccc(OC(F)F)cc4)C3=O)ccc2n1` [Example 144, 7-cyclopropoxy-1-(4-(difluoromethoxy)phenyl)-3-(2-methyl-2H-indazol-5-yl)-3,4-dihydropyrido[2,3-d]pyrimidin-2(1H)-one], the IC50 is under 100 nM in test [1] (setting [5]), over 1000 nM in test [2], 100 to 1000 nM in test [3] (setting [6]) and under 100 nM in test [4].
Turning to `Cn1cc2cc(N3Cc4ccc(OCC(F)(F)F)nc4N(c4ccc(OC(F)F)cc4)C3=O)ccc2n1` [Example 270], the IC50 in test [1] (setting [5]) was under 100 nM; in test [2], over 1000 nM; in test [3] (setting [6]) it was 100 to 1000 nM; in test [4], under 100 nM.
Turning to `Cn1cc2cc(N3Cc4ccc(OCC(F)F)nc4N(c4ccc5ocnc5c4)C3=O)ccc2n1` [Example 283, 1-(benzo[d]oxazol-5-yl)-7-(2,2-difluoroethoxy)-3-(2-methyl-2H-indazol-5-yl)-3,4-dihydropyrido[2,3-d]pyrimidin-2(1H)-one], the IC50 in test [1] (setting [5]) was 100 to 1000 nM; in test [2] it was 100 to 1000 nM; in test [3] (setting [6]), 100 to 1000 nM; in test [4], under 100 nM.
As for `COc1ccc(N2C(=O)N(c3ccc4nn(C)cc4c3)Cc3ccc(OCC(F)F)nc32)cc1` [Example 141, 7-(2,2-difluoroethoxy)-1-(4-methoxyphenyl)-3-(2-methyl-2H-indazol-5-yl)-3,4-dihydropyrido[2,3-d]pyrimidin-2(1H)-one], the IC50 in test [1] (setting [5]) is under 100 nM; in test [2], 100 to 1000 nM; in test [3] (setting [6]) it was under 100 nM; in test [4], under 100 nM.
Consider `Cn1cnc2ccc(N3Cc4ccc(OCC(F)F)nc4N(c4ccc(OC(F)F)cc4)C3=O)cc21` [Example 140, 7-(2,2-difluoroethoxy)-1-(4-(difluoromethoxy)phenyl)-3-(1-methyl-1H-benzo[d]imidazol-6-yl)-3,4-dihydropyrido[2,3-d]pyrimidin-2(1H)-one], for which the IC50 in test [1] (setting [5]) is under 100 nM; in test [2], over 1000 nM; in test [3] (setting [6]), under 100 nM; in test [4] it was under 100 nM.
In the case of `CCOc1ccc2c(n1)N(c1ccc(-c3nnc[nH]3)cc1)C(=O)N(c1ccc3nn(C)cc3c1)C2` [Example 153, 1-(4-(4H-1,2,4-triazol-3-yl)phenyl)-7-ethoxy-3-(2-methyl-2H-indazol-5-yl)-3,4-dihydropyrido[2,3-d]pyrimidin-2(1H)-one], the IC50 in test [1] (setting [5]) is under 100 nM; in test [2] it was over 1000 nM; in test [3] (setting [6]), under 100 nM; in test [4], under 100 nM.
As to `COc1ccc(N2C(=O)N(c3ccc4ncccc4c3)Cc3cnc(NCC(F)(F)F)nc32)cc1` [Example 241], the IC50 in test [1] (setting [5]) is 100 to 1000 nM; in test [2], over 1000 nM; in test [3] (setting [6]), 100 to 1000 nM; in test [4] it was under 100 nM.
For the compound `CCNc1ccc2c(n1)N(c1ccc(OC(F)F)cc1)C(=O)N(c1ccc3ncn(C)c3c1)C2` [Example 274], the IC50 in test [1] (setting [5]) is under 100 nM; in test [1] (setting [7]), under 100 nM; in test [2], over 1000 nM; in test [3] (setting [6]), under 100 nM; in test [3] (setting [7]) it was under 100 nM; in test [4], under 100 nM.
`[2H]C([2H])([2H])Oc1ccc(N2C(=O)N(c3ccc4nn(C)cc4c3)Cc3ccc(OCC4CC4)nc32)cc1` [Example 164, 7-(cyclopropylmethoxy)-1-(4-methoxy-d3-phenyl)-3-(2-methyl-2H-indazol-5-yl)-3,4-dihydropyrido[2,3-d]pyrimidin-2(1H)-one]: the IC50 was 100 to 1000 nM in test [1] (setting [5]), over 1000 nM in test [2], 100 to 1000 nM in test [3] (setting [6]) and under 100 nM in test [4].
For the compound `Cn1cnc2ccc(N3Cc4ccc(OCC(F)(F)F)nc4N(c4ccc(OC(F)F)cc4)C3=O)cc21` [Example 273], the IC50 in test [1] (setting [5]) is 100 to 1000 nM; in test [2], over 1000 nM; in test [3] (setting [6]), 100 to 1000 nM; in test [4], under 100 nM.
For `Cn1cc2cc(N3Cc4ccc(OCC(F)F)nc4N(c4ccc5c(c4)ncn5C)C3=O)ccc2n1` [Example 403, 7-(2,2-difluoroethoxy)-1-(1-methyl-1H-benzo[d]imidazol-5-yl)-3-(2-methyl-2H-indazol-5-yl)-3,4-dihydropyrido[2,3-d]pyrimidin-2(1H)-one], the IC50 in test [1] (setting [5]) is under 100 nM; in test [2] it was over 1000 nM; in test [3] (setting [6]), 100 to 1000 nM; in test [4], under 100 nM.
